# Values quoted from earlier work in patent US20260315441A1, “FORMULATIONS OF PENICILLIN AND METHODS FOR STABILIZING PENICILLIN” (VETERINARY PHARMACY CORPORATION, priority 2023, published 2026).
# Read-outs that look alike come from different tables or passages of the source.
Structure (SMILES),pH of highest stability (aqueous solution),degradation of penicillin G (at 5° C.) [%/hour],degradation of penicillin G (at 37° C.) [%/hour],minimum degradation pH point (aqueous solution) [pH],stability outside of the pH range of 5-8 (pH outside 5-8)
"CC1(C)S[C@@H]2[C@H](NC(=O)Cc3ccccc3)C(=O)N2[C@H]1C(=O)O [Penicillin G, benzylpenicillin]",5-8 pH,1.92,3.29,–,–
CC1(C)S[C@@H]2[C@H](NC(=O)Cc3ccccc3)C(=O)N2[C@H]1C(=O)O [Penicillin],–,–,–,6.5,very unstable
